# Laboratory results from patent US10617681B2, “1-arylalkyl-4-acylaminopiperidine compounds” (ARIZONA BOARD OF REGENTS ON BEHALF OF THE UNIVERSITY OF …, priority 2014, dated 2020).
# Columns and labels:
# [1] = molecular target: hERG (Homo sapiens, UniProt Q12809); assay: hERG inhibition; type: cell-based
# Procedure: Compound HCV-3 also was tested for hERG inhibition. Over the concentration range tested (up to 25 micromolar) no dose-response was obtained. […] The control compounds behaved as expected in the assay.
# [2] = In vitro metabolic disposition in human microsomes; type: in vitro ADME; settings: human pooled liver microsomes, 0-45 minutes
# Procedure: (§1) Compound HCV-3 also was subjected to in vitro metabolic disposition in mouse, rat, monkey and human microsomes. The test compound was incubated with pooled liver microsomes, since […] stability in liver microsomes can be predictive of drug stability in vivo. Aliquots were taken at 0, 5, 15, 30 and 45 minutes and quenched immediately. The samples were extracted and analyzed by LC-MS/MS.
# [3] = molecular target: CYP2C9 (Homo sapiens, UniProt P11712); assay: CYP inhibition, CYP2C9
# Sequence of CYP2C9 (P11712 whole entry): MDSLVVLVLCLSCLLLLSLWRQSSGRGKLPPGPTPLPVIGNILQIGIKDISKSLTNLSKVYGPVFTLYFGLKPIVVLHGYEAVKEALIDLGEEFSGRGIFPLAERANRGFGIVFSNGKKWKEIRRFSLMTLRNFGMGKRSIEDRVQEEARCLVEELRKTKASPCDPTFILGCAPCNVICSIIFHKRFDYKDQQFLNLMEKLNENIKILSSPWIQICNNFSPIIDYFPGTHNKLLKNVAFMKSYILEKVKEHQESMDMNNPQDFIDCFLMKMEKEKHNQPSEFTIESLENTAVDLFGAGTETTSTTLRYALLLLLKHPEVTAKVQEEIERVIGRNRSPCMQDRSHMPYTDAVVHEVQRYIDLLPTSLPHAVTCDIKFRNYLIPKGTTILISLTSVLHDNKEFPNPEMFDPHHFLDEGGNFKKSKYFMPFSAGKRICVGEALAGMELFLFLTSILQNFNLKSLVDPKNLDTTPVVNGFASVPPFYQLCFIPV
# [4] = molecular target: T1, μ (MOP) (Homo sapiens, UniProt P35372); assay: Cellular functional assay, antagonist effect, μ (MOP); type: cell-based; settings: antagonist mode
# T1 sequence (P35372 whole entry): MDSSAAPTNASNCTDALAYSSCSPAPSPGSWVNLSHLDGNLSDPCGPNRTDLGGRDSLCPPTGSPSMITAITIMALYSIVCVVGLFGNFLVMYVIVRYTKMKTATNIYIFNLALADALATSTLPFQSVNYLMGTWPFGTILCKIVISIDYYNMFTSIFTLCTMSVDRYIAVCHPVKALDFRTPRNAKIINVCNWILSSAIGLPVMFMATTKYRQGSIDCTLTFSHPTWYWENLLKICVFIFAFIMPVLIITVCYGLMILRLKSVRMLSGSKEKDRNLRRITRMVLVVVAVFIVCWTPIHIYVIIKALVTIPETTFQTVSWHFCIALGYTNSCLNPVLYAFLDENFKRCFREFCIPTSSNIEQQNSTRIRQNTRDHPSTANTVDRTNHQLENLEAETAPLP
# [5] = molecular target: T2, α2B(h) (Homo sapiens, UniProt P18089); assay: Cellular functional assay, agonist effect, α2B; type: cell-based
# T2 sequence (P18089 1-450): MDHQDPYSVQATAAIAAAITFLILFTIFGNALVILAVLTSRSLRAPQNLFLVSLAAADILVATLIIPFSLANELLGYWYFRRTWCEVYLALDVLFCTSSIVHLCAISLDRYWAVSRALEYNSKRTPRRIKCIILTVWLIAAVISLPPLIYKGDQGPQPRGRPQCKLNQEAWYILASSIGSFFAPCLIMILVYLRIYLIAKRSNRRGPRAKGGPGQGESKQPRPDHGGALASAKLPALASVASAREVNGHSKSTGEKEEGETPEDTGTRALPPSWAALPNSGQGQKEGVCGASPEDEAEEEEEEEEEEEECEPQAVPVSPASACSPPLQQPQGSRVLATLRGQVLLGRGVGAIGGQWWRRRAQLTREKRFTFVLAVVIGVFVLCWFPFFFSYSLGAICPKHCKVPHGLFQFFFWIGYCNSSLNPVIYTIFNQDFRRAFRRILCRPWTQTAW
# [6] = molecular target: T3, κ (KOP) (Rattus norvegicus, UniProt P34975); assay: Cellular functional assay, agonist effect, κ (KOP); type: cell-based; settings: agonist mode
# T3 sequence (P34975 whole entry): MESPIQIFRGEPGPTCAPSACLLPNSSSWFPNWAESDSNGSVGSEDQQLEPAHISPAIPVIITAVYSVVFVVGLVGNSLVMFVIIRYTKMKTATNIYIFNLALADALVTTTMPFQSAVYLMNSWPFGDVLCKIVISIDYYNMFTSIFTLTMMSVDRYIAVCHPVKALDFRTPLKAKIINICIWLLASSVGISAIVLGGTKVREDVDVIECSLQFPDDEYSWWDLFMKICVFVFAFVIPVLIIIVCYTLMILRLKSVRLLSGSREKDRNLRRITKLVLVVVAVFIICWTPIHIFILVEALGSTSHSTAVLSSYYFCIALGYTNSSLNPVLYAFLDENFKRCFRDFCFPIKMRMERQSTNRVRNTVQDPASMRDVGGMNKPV
# [7] = molecular target: T4, CYP2C8 (Homo sapiens, UniProt P10632); assay: CYP inhibition, CYP2C8
# T4 sequence (P10632 1-490): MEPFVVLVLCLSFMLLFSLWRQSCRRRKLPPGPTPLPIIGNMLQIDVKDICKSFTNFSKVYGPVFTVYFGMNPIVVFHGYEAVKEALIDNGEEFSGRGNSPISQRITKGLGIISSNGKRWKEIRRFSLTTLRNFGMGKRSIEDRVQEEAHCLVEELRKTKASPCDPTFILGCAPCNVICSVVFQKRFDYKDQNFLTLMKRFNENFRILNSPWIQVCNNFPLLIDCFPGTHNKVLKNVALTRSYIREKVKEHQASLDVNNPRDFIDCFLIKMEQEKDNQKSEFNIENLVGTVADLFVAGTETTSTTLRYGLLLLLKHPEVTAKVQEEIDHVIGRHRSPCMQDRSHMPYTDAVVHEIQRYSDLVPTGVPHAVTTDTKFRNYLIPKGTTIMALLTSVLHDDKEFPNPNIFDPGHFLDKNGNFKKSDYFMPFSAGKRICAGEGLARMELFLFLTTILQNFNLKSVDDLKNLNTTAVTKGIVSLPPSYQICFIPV
# [8] = tested on: TA98; assay: AMES testing, strain TA98; type: cell-based; settings: TA98, up to 1 mg/mL, absence and presence of S9 metabolic activation
# Procedure: (§2) Compound HCV-3 was negative for genotoxicity against both strains used in this assay (TA98 and TA 100) up to a maximum tested concentration of 1 mg/mL, in both the absence and presence of S9 metabolic activation. The assay controls behaved as expected.
# [9] = molecular target: CYP2C19 (Homo sapiens, UniProt P33261); assay: CYP inhibition, CYP2C19
# Sequence of CYP2C19 (P33261 whole entry): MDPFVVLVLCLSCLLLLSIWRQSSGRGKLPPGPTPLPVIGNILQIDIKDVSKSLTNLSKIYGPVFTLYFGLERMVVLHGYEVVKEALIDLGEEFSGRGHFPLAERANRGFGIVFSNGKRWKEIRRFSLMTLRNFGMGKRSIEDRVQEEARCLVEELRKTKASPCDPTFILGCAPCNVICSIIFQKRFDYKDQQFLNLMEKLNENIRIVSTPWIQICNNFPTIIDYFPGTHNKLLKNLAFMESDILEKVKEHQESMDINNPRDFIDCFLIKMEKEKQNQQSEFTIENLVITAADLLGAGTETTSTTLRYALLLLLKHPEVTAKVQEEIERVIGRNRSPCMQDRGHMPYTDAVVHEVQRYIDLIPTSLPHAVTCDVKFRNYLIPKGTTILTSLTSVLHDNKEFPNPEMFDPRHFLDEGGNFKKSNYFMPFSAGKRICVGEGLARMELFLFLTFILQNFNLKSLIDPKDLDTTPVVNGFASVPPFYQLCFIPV
# [10] = tested on: TA 100; assay: AMES testing, strain TA 100; type: cell-based; settings: TA 100, up to 1 mg/mL, absence and presence of S9 metabolic activation
# Procedure: as §2
# [11] = tested on: P-gp; assay: MDCK permeability assay; settings: dog, MDCK
# [12] = tested on: MDCK; assay: MDCK permeability assay
# [13] = In vitro metabolic disposition in rat microsomes; type: in vitro ADME; settings: rat pooled liver microsomes, 0-45 minutes
# Procedure: as §1
# [14] = molecular target: CYP3A4 (Homo sapiens, UniProt P08684); assay: CYP inhibition, CYP3A4; settings: with either substrate
# Sequence of CYP3A4 (P08684 whole entry): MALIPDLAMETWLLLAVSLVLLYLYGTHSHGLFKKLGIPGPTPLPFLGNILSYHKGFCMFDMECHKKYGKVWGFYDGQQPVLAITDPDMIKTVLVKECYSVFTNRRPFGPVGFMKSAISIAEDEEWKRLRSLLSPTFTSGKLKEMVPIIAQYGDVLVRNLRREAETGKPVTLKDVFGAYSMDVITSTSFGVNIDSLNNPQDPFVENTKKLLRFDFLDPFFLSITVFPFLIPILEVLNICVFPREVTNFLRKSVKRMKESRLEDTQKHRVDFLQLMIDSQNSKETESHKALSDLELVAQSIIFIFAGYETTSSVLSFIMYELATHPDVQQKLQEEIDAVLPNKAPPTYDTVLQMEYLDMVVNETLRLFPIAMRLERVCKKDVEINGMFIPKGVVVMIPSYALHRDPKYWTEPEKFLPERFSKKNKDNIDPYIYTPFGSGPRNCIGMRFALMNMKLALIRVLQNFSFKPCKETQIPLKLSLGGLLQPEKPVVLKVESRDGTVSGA
# [15] = molecular target: T3, κ (KOP); assay: Cellular functional assay, antagonist effect, κ (KOP); type: cell-based
# [16] = molecular target: T2, α2B(h); assay: Cellular functional assay, antagonist effect, α2B; type: cell-based; settings: antagonist mode
# [17] = molecular target: T5, CYP1A2 (Homo sapiens, UniProt P05177); assay: CYP inhibition, CYP1A2
# T5 sequence (P05177 1-516): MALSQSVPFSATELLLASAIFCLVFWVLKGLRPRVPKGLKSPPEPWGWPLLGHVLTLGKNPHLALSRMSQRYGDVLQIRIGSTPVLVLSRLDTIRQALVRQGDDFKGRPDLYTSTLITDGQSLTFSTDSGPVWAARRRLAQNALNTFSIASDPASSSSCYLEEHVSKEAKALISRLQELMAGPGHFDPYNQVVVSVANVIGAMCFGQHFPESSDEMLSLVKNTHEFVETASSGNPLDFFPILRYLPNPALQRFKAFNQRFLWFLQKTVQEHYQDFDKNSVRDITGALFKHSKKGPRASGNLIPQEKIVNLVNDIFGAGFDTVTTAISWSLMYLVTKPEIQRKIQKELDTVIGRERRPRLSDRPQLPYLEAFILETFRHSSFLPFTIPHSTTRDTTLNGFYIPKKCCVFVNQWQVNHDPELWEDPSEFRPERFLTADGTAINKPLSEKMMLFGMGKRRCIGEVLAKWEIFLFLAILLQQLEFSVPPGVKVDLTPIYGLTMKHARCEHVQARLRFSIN
# [18] = In vitro metabolic disposition in monkey microsomes; type: in vitro ADME; settings: monkey pooled liver microsomes, 0-45 minutes
# Procedure: as §1
# [19] = molecular target: T1, μ (MOP); assay: Cellular functional assay, agonist effect, μ (MOP); type: cell-based; settings: agonist mode
# [20] = In vitro metabolic disposition in mouse microsomes; type: in vitro ADME; settings: mouse pooled liver microsomes, 0-45 minutes
# Procedure: as §1
# [21] = molecular target: T6, CYP2B6 (Homo sapiens, UniProt P20813); assay: CYP inhibition, CYP2B6
# T6 sequence (P20813 1-491): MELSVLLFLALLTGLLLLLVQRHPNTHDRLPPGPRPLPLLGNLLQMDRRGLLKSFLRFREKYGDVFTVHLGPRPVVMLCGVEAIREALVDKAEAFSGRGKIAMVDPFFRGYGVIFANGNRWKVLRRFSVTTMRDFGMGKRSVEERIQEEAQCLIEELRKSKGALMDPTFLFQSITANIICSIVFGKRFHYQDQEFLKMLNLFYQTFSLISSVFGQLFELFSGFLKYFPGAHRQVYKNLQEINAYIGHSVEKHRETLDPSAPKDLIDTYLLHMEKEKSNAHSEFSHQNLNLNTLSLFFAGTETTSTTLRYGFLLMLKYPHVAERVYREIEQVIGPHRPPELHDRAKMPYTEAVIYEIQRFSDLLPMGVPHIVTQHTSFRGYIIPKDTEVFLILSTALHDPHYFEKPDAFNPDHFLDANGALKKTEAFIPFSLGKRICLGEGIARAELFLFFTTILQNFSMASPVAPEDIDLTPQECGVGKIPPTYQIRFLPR
# [22] = molecular target: CYP2D6 (Homo sapiens, UniProt P10635); assay: CYP inhibition, CYP2D6
# Sequence of CYP2D6 (P10635 whole entry): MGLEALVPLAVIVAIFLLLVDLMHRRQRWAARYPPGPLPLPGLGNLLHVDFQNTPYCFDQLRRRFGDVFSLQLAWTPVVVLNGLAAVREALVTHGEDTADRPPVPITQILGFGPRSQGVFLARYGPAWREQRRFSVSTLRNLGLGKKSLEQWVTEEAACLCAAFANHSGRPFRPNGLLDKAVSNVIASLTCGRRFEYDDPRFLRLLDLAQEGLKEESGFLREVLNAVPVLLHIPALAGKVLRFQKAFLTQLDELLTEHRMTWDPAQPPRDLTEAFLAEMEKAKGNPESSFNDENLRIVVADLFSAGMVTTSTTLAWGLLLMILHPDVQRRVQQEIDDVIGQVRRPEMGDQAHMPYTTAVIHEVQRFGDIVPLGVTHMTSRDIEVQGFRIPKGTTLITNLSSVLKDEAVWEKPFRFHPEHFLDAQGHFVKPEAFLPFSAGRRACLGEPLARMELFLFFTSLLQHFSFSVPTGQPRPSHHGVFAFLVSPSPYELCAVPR
# Sequence of hERG (Q12809 whole entry): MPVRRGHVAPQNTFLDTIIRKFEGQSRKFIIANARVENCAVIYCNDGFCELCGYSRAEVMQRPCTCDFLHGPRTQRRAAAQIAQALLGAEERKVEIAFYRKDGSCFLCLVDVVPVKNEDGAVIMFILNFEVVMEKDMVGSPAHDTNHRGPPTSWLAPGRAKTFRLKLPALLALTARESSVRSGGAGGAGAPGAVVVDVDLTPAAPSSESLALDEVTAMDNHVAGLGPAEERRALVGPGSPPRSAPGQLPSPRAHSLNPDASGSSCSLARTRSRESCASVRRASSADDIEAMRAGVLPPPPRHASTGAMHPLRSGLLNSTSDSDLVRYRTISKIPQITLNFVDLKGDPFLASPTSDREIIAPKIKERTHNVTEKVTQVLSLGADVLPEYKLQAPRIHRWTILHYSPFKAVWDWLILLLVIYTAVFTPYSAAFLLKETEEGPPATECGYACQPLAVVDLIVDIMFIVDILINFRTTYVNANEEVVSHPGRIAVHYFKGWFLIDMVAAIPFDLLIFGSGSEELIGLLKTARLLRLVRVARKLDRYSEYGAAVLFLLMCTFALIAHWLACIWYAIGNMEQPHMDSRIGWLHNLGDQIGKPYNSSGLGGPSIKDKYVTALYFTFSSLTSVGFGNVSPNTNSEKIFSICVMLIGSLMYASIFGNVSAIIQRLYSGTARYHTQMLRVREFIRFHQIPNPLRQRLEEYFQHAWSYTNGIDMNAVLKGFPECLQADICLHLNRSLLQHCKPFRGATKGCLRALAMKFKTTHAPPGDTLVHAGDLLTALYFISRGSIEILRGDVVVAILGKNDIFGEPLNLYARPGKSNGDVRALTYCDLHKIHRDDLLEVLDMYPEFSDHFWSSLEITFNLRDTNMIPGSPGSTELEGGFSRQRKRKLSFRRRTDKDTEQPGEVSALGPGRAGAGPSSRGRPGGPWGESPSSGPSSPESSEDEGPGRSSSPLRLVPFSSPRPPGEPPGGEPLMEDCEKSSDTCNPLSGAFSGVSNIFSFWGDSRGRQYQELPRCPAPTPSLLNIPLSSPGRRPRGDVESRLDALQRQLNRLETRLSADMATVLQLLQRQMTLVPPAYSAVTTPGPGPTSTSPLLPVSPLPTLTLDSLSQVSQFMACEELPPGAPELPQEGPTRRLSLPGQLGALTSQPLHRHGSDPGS
structure (smiles),measurement,setting,value
"CCC(=O)NC1CCN(CCc2ccccc2)CC1 [HCV-3, N-(1-phenethylpiperidin-4-yl)propionamide]",hERG inhibition category,[1],weak or no hERG inhibition
same,IC50,[1]; concentration range tested up to 25 micromolar,> 25 µM
same,inhibition at 25 micromolar,"[1]; human, at the top concentration of 25 micromolar",32.5%
same,clearance,[2],low clearance
same,CYP2C9 inhibition,[3],No inhibition
same,"Agonist Response (% of Control), 1st","[4]; 1.0E−05, first replicate",100.1 % of Control
same,"Agonist Response (% of Control), Mean","[4]; 1.0E−05, mean",101.0 % of Control
same,"Agonist Response (% of Control), 2nd","[4]; 1.0E−05, second replicate",101.8 % of Control
same,% Inhibition of Control Agonist Response,[4]; test concentration 1.0E−05,−1%
same,"% of Control Agonist Response, 1st","[5]; agonist mode, 1.0E−05, first replicate",9.2%
same,"% of Control Agonist Response, Mean","[5]; agonist mode, 1.0E−05, mean",7.1%
same,"% of Control Agonist Response, 2nd","[5]; agonist mode, 1.0E−05, second replicate",5.1%
same,% of Control Agonist Response,"[5]; agonist mode, test concentration 1.0E−05",7.1%
same,"% of Control Agonist Response, 1st","[6]; 1.0E−05, first replicate",−10.3%
same,"% of Control Agonist Response, Mean","[6]; 1.0E−05, mean",−4.2%
same,"% of Control Agonist Response, 2nd","[6]; 1.0E−05, second replicate",1.8%
same,% of Control Agonist Response,[6]; test concentration 1.0E−05,−4.2%
same,CYP2C8 inhibition,[7],No inhibition
same,genotoxicity,[8],negative
same,CYP2C19 inhibitor category,[9],weak CYP2C19 inhibitor
same,inhibition at 25 micromolar,[9],36.4%
same,genotoxicity,[10],negative
same,efflux ratio,[11],1.48
same,permeability,[12]; MDCK assay,highly permeable
same,clearance,[13],moderate clearance
same,CYP3A4 inhibition,[14],No inhibition
same,"Agonist Response (% of Control), 1st","[15]; antagonist mode, 1.0E−05, first replicate",112.4 % of Control
same,"Agonist Response (% of Control), Mean","[15]; antagonist mode, 1.0E−05, mean",94.4 % of Control
same,"Agonist Response (% of Control), 2nd","[15]; antagonist mode, 1.0E−05, second replicate",76.5 % of Control
same,% Inhibition of Control Agonist Response,"[15]; antagonist mode, test concentration 1.0E−05",6%
same,"Agonist Response (% of Control), 1st","[16]; 1.0E−05, first replicate",116.8 % of Control
same,"Agonist Response (% of Control), Mean","[16]; 1.0E−05, mean",127.8 % of Control
same,"Agonist Response (% of Control), 2nd","[16]; 1.0E−05, second replicate",138.7 % of Control
same,% Inhibition of Control Agonist Response,[16]; test concentration 1.0E−05,−28%
same,CYP1A2 inhibition,[17],No inhibition
same,clearance,[18],low clearance
same,"% of Control Agonist Response, 1st","[19]; 1.0E−05, first replicate",28.1%
same,"% of Control Agonist Response, Mean","[19]; 1.0E−05, mean",33.5%
same,"% of Control Agonist Response, 2nd","[19]; 1.0E−05, second replicate",38.9%
same,% of Control Agonist Response,[19]; test concentration 1.0E−05,33.5%
same,clearance,[20],low clearance
same,CYP2B6 inhibition,[21],No inhibition
same,CYP2D6 inhibitor category,[22],moderate CYP2D6 inhibitor
same,IC50,[22],4.2 µM
"Cc1cccc([C@H](C)c2c[nH]cn2)c1C [dexmedetc, reference compound]",EC50,"[5]; reference agonist, read-out: Reference EC50 Ref",13 nM
"Oc1ccc2c3c1O[C@H]1c4[nH]c5c(c4C[C@@]4(O)[C@@H](C2)N(CC2CC2)CC[C@]314)C[C@@]1(O)[C@H]2Cc3ccc(O)c4c3[C@@]1(CCN2CC1CC1)[C@H]5O4 [nor-BNI, reference compound]",Kb,"[15]; reference antagonist, read-out: Reference Kb Ref",0.072 nM
"COc1cc2nc(N3CCN(C(=O)c4ccco4)CC3)nc(N)c2cc1OC [prazosin, reference compound]",efflux (control compound),[12]; in the absence of Cyclosporin A,showing efflux
same,efflux (control compound),[12]; in the presence of Cyclosporin A,inhibited
